Assay results from PMC5225172 (Cancer Chemotherapy and Pharmacology, 2016).
Entries after “also recorded” stand apart in the source; their conditions may differ.

Tested on: advanced or refractory solid tumors
Assay: Tumor response and disease assessment by RECIST version 1.1
Assay type: in vivo, human
Text: Screening comprised: provision of written, informed consent; demographics; baseline characteristics; concomitant medications; safety assessments (adverse events [defined as any new finding not present in the patient’s medical history, or a worsening of a prior medical history finding], vital signs, laboratory tests, physical examination, 12-lead electrocardiogram, multigated acquisition scan, or echocardiogram); tumor measurements by computed tomography or magnetic resonance imaging; disease assessment as defined by RECIST version 1.1; ophthalmologic examination; chest computed tomography; and ECOG PS assessment. The following assessments were also performed on cycle 1, day 1: safety; ECOG PS assessment; concomitant medications; blood samples for PK analysis; serum samples for glucose analysis; serum insulin; urinalysis; serum ketones; and post-dose echocardiogram. Safety assessments, blood pressure measurements, blood sampling for PK analysis, and urinalysis were also performed on days 8 and 15 of cycle 1.
Additional PK samples were collected at either 72, 96, or 120 h following the start of infusion. PK samples were also collected on cycle 1, day 15 at 0, 0.5, 1, 1.5, 2, 3, 5, 8, 11, and 25 h following the start of infusion and on cycle 3, day 15 at 0, 0.5, 1, 1.5, 2, 3, 5, and 8 h following the start of infusion. Blood pressure monitoring was performed every 5 min before dosing on cycle 1, day 1 until the observation of two consecutive measurements <150 mmHg (systolic) and <90 mmHg (diastolic). […] Serum samples for glucose analysis were collected immediately before the first infusion and in parallel with PK sampling through to 49 h post-dose. Glucose samples taken at 25 h post-dose were to be fasting, where possible and if deemed safe. Capillary blood glucose testing was to be performed for hyperglycemia management as determined appropriate by the investigator; hyperglycemia was defined as capillary blood glucose >200 mg/dL and was to be treated with short-acting insulin. Tumor measurement and disease assessment according to RECIST version 1.1 were conducted every two cycles by the investigator.

COc1c(OCCCN2CCOCC2)ccc2c1N=C(NC(=O)c1cnc(N)nc1)N1CCN=C21 [copanlisib, Copanlisib]
Best overall response: Complete response (Cohort 1, 0.4 mg/kg (n = 3)): 0 n (%) | Best overall response: Partial response (Cohort 1, 0.4 mg/kg (n = 3)): 0 n (%) | Best overall response: Progressive disease (by proven measurement) (Cohort 1, 0.4 mg/kg (n = 3)): 2 (66.7) n (%) | Best overall response: Stable disease (Cohort 1, 0.4 mg/kg (n = 3)): 1 (33.3) n (%) | Overall disease control rate (complete response + partial response + stable disease) (Cohort 1, 0.4 mg/kg (n = 3)): 1 (33.3) n (%) | Overall response rate (complete response + partial response) (Cohort 1, 0.4 mg/kg (n = 3)): 0 n (%) | Best overall response: Complete response (Cohort 2, 0.8 mg/kg (n = 7)): 0 n (%) | Best overall response: Partial response (Cohort 2, 0.8 mg/kg (n = 7)): 0 n (%) | Best overall response: Progressive disease (by proven measurement) (Cohort 2, 0.8 mg/kg (n = 7)): 4 (57.1) n (%) | Best overall response: Stable disease (Cohort 2, 0.8 mg/kg (n = 7)): 3 (42.9) n (%) | Overall disease control rate (complete response + partial response + stable disease) (Cohort 2, 0.8 mg/kg (n = 7)): 3 (42.9) n (%) | Overall response rate (complete response + partial response) (Cohort 2, 0.8 mg/kg (n = 7)): 0 n (%) | Best overall response: Complete response (Total (n = 10)): 0 n (%) | Best overall response: Partial response (Total (n = 10)): 0 n (%) | Best overall response: Progressive disease (by proven measurement) (Total (n = 10)): 6 (60.0) n (%) | Best overall response: Stable disease (Total (n = 10)): 4 (40.0) n (%) | Overall disease control rate (complete response + partial response + stable disease) (Total (n = 10)): 4 (40.0) n (%) | Overall response rate (complete response + partial response) (Total (n = 10)): 0 n (%) | Disease control rate (cohort 1, 0.4 mg/kg): 33.3% | Median time to progression (cohort 1, 0.4 mg/kg, 95% CI 50–77): 52 days | Time to progression, single patient (cohort 1, stable disease as best response): 77 days | Disease control rate (cohort 2, 0.8 mg/kg): 42.9% | Median time to progression (cohort 2, 0.8 mg/kg, 95% CI 21–not estimated): 53 days | Time to progression, single patient (censored) (cohort 2, gastrointestinal stromal tumor, stable disease, discontinued for thrombocytopenia): 176 days | Time to progression, single patient (cohort 2, stable disease as best response): 82 days | Time to progression, single patient (censored) (cohort 2, stable disease, discontinued because of grade 3 diarrhea): 50 days | Rate of progression-free survival (overall, after 1 month): 0.80 (95% CI 0.41–0.95) | Rate of progression-free survival (overall, after 2 months): 0.35 (95% CI 0.08–0.64) | Rate of progression-free survival (overall, after 3 months): 0.12 (95% CI 0.01–0.40) | Median time to progression (overall, 95% CI 21–82): 52 days | Complete or partial response (ten patients): No patients achieved a complete or partial response; also recorded: none experienced a complete or partial response | Disease control rate (ten patients): 40% | Progressive disease as best response (ten patients): 60.0% | Stable disease as best response (ten patients): 40.0%
